For test [1], the target named is T1, recombinant human HLA-E*0103 (Homo sapiens, UniProt P13747).
T1 construct: made in house; host or cells: E. coli
The experiment in a line: biochemical. It is filed as binding.

Another test relates to CD3+CD8+CD56- T-cells. In kind it is cell-based, human. The note with it: for percentage of proliferation within CD3+CD8+CD56- cells: PBMCs, peptide 10 µg/ml (PHA 2 µg/ml, PPD 5 µg/ml), IL-7, IL-2 day 7, CFSE read day 10.
Another test concerns TGFβ1. It is filed as cell-based, human.
The subject of a further test is CD8+ T-cells. It is filed as cell-based, human.
The mark [2] stands for this setting: concentration of peptide reducing fluorescence of standard peptide VMAPC(Fl)TLLL (100 fmol) by 50%, […], gel filtration HPLC, emission 528 nm, at least two separate experiments, read-out: Binding.

Read-outs that look alike come from different tables or passages of the source. Where no end group is shown, it is not given here.

As for `CC[C@H](C)[C@H](N)C(=O)N[C@@H](CCSC)C(=O)N[C@@H](C)C(=O)N[C@@H](CC(N)=O)C(=O)N[C@@H](CCCNC(=N)N)C(=O)N[C@@H](C)C(=O)N[C@@H](CCC(N)=O)C(=O)N[C@H](C(=O)N[C@@H](CC(C)C)C(=O)O)C(C)C` [Peptide 3], in test [1] (setting [2]), the IC50 was determined as 0.4 µM.
Consider `CSCC[C@H](NC(=O)[C@@H](N)CCC(N)=O)C(=O)N[C@@H](CCCCN)C(=O)N[C@@H](Cc1ccccc1)C(=O)N[C@@H](Cc1ccc(O)cc1)C(=O)N[C@@H](C)C(=O)N[C@H](C(=O)N[C@@H](C)C(=O)N[C@@H](CC(C)C)C(=O)O)C(C)C` [Peptide 5, QMKFYAVAL], for which, in test [1], the IC50 was determined as 1.5 µM.
On to `CC(C)C[C@H](NC(=O)[C@H](CC(C)C)NC(=O)[C@@H]1CCCN1C(=O)[C@H](C)NC(=O)[C@H](CCCCN)NC(=O)[C@H](C)NC(=O)[C@@H]1CCCN1C(=O)[C@H](CC(C)C)NC(=O)[C@@H](N)CCCNC(=N)N)C(=O)O` [Peptide 44], for which the IC50 in test [1] (setting [2]) stood at 0.03 µM.
For the compound `CC[C@H](C)[C@H](N)C(=O)N[C@@H](CC(C)C)C(=O)N1CCC[C@H]1C(=O)N[C@@H](CO)C(=O)N[C@@H](CC(=O)O)C(=O)N[C@@H](C)C(=O)N1CCC[C@H]1C(=O)N[C@H](C(=O)N[C@@H](CC(C)C)C(=O)O)C(C)C` [Peptide 49], the IC50 in test [1] (setting [2]) worked out at 0.2 µM.
For the compound AMAGSIDLL [Peptide 36], the IC50 in test [1] (setting [2]) is 34 µM.
The same measure, in the same setting: in the case of DLPSRLGKI-OH [Peptide 58] it was over 50 µM.
As to DMLGRAGGL-OH [Peptide 12], the IC50 in test [1] (setting [2]) was over 50 µM.
On the same count and under the same terms, in the case of EMGRAPLDL-OH [Peptide 43] it was over 50 µM.
As to EMLTSRGLL-OH [Peptide 37], in test [1], the IC50 was over 50 µM.
Take EMVLRADQL-OH [Peptide 11]: the IC50 in test [1] (setting [2]) is over 50 µM.
In the case of FLAADALVL-OH [Peptide 15], the IC50 in test [1] (setting [2]) was over 50 µM.
Regarding FLLPRGLAI-OH [Peptide 54], the “percentage of proliferation within CD3+CD8+CD56- cells” value was determined as 15.8% in the test with CD3+CD8+CD56- T-cells (donor 2), 0.2% in the test on CD3+CD8+CD56- T-cells (donor 4) and 1.6% with CD3+CD8+CD56- T-cells (donor 6). Besides, in test [1] (setting [2]), the IC50 was over 50 µM.
For the compound FMTRLGPLL [Peptide 60], the IC50 in test [1] stood at 37 µM.
On to GLDARAYRL-OH [Peptide 19], for which the IC50 in test [1] (setting [2]) was over 50 µM.
As to GLDSRAYRL-OH [Peptide 18], in test [1] (setting [2]), the IC50 is over 50 µM.
On to GMGMVGTAL-OH [Peptide 35, GMGMVGTAL], for which, in test [1] (setting [2]), the IC50 was over 50 µM.
On to GMNVTAPAL [Peptide 7, GMNVTAPAL], for which the IC50 in test [1] (setting [2]) was found to be 8 µM.
Consider IEPRGAQAL-OH [Peptide 57, IEPRGAQAL], for which the IC50 in test [1] was over 50 µM.
On to KMNAKAATL [Peptide 4], for which the IC50 in test [1] (setting [2]) came to 15 µM.
In the case of “LAP: recombinant latency associated peptide, reverts active TGFβ to a latent, inactive form (R&D systems)”, the “increased proliferation on addition of LAP to the indicator clone only” value with TGFβ1 (Rp15 1-1 clone without Tregs, data not shown) is reported as at most 20%. In addition, in the test on TGFβ1 (Tregs + Rp15 1-1, 0.5 µg/ml cognate peptide, HLA-DR3+ APCs, 3 days), the “increase of proliferation on addition of LAP to co-cultures of Tregs and indicator clones” value is on record as “over 40%”.
With LMGAEADAL-OH [Peptide 17, LMGAEADAL], the IC50 in test [1] (setting [2]) was over 50 µM.
On the same count and under the same terms, to LMGALAVVL [Peptide 26] belongs 21 µM.
On to LMHYRGELL [Peptide 29], for which the IC50 in test [1] stood at 20 µM.
The same measure, in the same setting: to LPAERAHEL-OH [Peptide 31] belongs over 50 µM.
For the compound PMADIAAAL-OH [Peptide 23, PMADIAAAL], the IC50 in test [1] (setting [2]) was over 50 µM.
The same measure, in the same setting: to PMAPLAPLL [Peptide 20] belongs 3 µM.
Still for that read-out and setting: to PMKRTALAL [Peptide 6, PMKRTALAL] belongs 18 µM; to QLAPGLQLI-OH [Peptide 46], over 50 µM.
Take REPRRGPRL-OH [Peptide 51]: the IC50 in test [1] was over 50 µM.
With RLANLLPLI [Peptide 48], in test [1] (setting [2]), the IC50 stood at 32 µM.
Consider RLASCRDAL-OH [Peptide 61, RLASCRDAL], for which the “number of PPD responding adult donors recognizing the peptide” value in the test on CD3+CD8+CD56- T-cells (10 PPD responders, recognition = >10% proliferating CD3+CD8+CD56- T-cells) is “not by any”. Further, the “number of BCG vaccinees recognizing the peptide” value with CD8+ T-cells is listed as 2.
Turning to RLGRLLNRI-OH [Peptide 56], the IC50 in test [1] (setting [2]) is over 50 µM.
Regarding RLRPELAGL [Peptide 52], in test [1] (setting [2]), the IC50 was determined as 46 µM.
Take RMAATAQVL [Peptide 14]: the IC50 in test [1] (setting [2]) was found to be 2 µM.
RMPPLGHEL [Peptide 62]: the IC50 in test [1] is 4 µM.
Same read-out and setting: in the case of RPANLAFFL [Peptide 59] it was 1.3 µM.
Regarding RSCPRLTIL-OH [Peptide 64], the IC50 in test [1] (setting [2]) is over 50 µM.
With SMADRAENL-OH [Peptide 1], in test [1] (setting [2]), the IC50 is over 50 µM.
Still for that read-out and setting: in the case of SMAGRAGQL-OH [Peptide 2] it was over 50 µM; in that of TMITFRLRL [Peptide 33], 2.4 µM.
On the same count and under the same terms, in the case of TSADRAVVL [Peptide 28] it was 39 µM; in that of VEAFRTRPL-OH [Peptide 16], over 50 µM.
VLLPGLPYL [Peptide 50]: in test [1], the IC50 was 8 µM.
On to VLPACLGIL [Peptide 67], for which, in test [1] (setting [2]), the IC50 was found to be 12 µM.
VLRPGGHFL [Peptide 68]: the IC50 in test [1] (setting [2]) turned out to be 1.8 µM.
Same read-out and setting: in the case of VMAPDAVRI [Peptide 63] it was 31 µM; in that of VMATRRNVL [Peptide 55], 16 µM.
On to VMMSEIAGL [Peptide 32], for which the IC50 in test [1] (setting [2]) amounted to 13 µM.
For VMTTVLATL [Peptide 34], in test [1] (setting [2]), the IC50 was determined as 1.8 µM.
Regarding VSNLRTGKL-OH [Peptide 27], in test [1], the IC50 is over 50 µM.
Take WLPPLLTNL [Peptide 69]: in test [1], the IC50 was determined as 39 µM.
Take WMCDRAVDL-OH [Peptide 9]: in test [1], the IC50 was over 50 µM.
